{"source": "patent US11274332B2", "about": "“Methods of administering 3,4-diaminopyridine” (SERB SA, priority 2011, dated 2022)", "assay": "Food-effect crossover study, adverse events after single 20 mg amifampridine phosphate in healthy subjects (Examples 10, 11)", "type": "in vivo", "method": "This was a randomized, open-label, 2-treatment, 2-period crossover study with 44 completed subjects to assess the safety, tolerability, and the effect of food on the relative bioavailability of a single dose of amifampridine phosphate.\nSafety was evaluated for all subjects who take at least one dose of 3,4-DAP. Safety was evaluated by recording the incidence of adverse events (AEs), physical examination, vital signs, concomitant medications, clinical laboratory assessments, and 12-lead electrocardiogram (ECG).\nAnalysis for the following safety parameters was carried out on the Safety Population: AEs which included all AEs, AEs by severity, drug-related AEs, deaths, SAEs, AEs leading to study discontinuation, and most frequent AEs, standard clinical laboratory tests, vital signs, ECG measurements, routine physical examinations, and prior and concomitant medications. The cut-off for frequency of AEs reported was determined based on the data. No formal statistical testing was performed for the safety analyses; only descriptive statistics were provided. Appropriate descriptive statistics for the safety data were determined using SAS Version 9.2.\nAEs were coded according to the Medical Dictionary for Regulatory Activities (MedDRA; Version 13.0). […] The occurrence of AEs was assessed continuously from the time the subject signed the VID and consent. The reporting period for non-serious AEs was from the first dose to the final study visit. The investigator determined the severity of each event and the relationship of an AE to the IP and recorded it on the source documents and AE CRF. The nature, time of onset, duration, severity, and relationship to study drug was documented, including documentation of investigator assessment and review. All events were assessed to determine if the AE was serious.\nThe Investigator determined the severity of each event and the event was recorded on the source documents and AE CRF. A coding of “mild” meant there was no limitation of usual activities, “moderate” meant there was some limitation of usual activities, “severe” meant there was an inability to carry out usual activities.\nThe reporting period for AEs that met the criteria of an SAE began from the time of signing the VID and consent form through follow-up or early termination. […] Clinical Laboratory Assessments"}
{"smiles": "Nc1ccncc1N.O=P(O)(O)O", "note": "[amifampridine phosphate, 3,4-diaminopyridine phosphate]", "values": [{"measurement": "Fatigue, drug-related AE: % of subjects", "setting": "Overall N=47", "value": 9, "unit": "%"}, {"measurement": "Fatigue, drug-related AE: events", "setting": "Overall N=47", "value": 4}, {"measurement": "Fatigue, drug-related AE: subjects", "setting": "Overall N=47", "value": 4}, {"measurement": "Feeling Hot, drug-related AE: % of subjects", "setting": "Overall N=47", "value": 2, "unit": "%"}, {"measurement": "Feeling Hot, drug-related AE: events", "setting": "Overall N=47", "value": 1}, {"measurement": "Feeling Hot, drug-related AE: subjects", "setting": "Overall N=47", "value": 1}, {"measurement": "Flushing, drug-related AE: % of subjects", "setting": "Overall N=47", "value": 2, "unit": "%"}, {"measurement": "Flushing, drug-related AE: events", "setting": "Overall N=47", "value": 1}, {"measurement": "Flushing, drug-related AE: subjects", "setting": "Overall N=47", "value": 1}, {"measurement": "Gastrointestinal Disorders Total, drug-related AE: % of subjects", "setting": "Overall N=47", "value": 19, "unit": "%"}, {"measurement": "Gastrointestinal Disorders Total, drug-related AE: events", "setting": "Overall N=47", "value": 12}, {"measurement": "Gastrointestinal Disorders Total, drug-related AE: subjects", "setting": "Overall N=47", "value": 9}, {"measurement": "General Disorders and Administration Site Conditions Total, drug-related AE: % of subjects", "setting": "Overall N=47", "value": 11, "unit": "%"}, {"measurement": "General Disorders and Administration Site Conditions Total, drug-related AE: events", "setting": "Overall N=47", "value": 5}, {"measurement": "General Disorders and Administration Site Conditions Total, drug-related AE: subjects", "setting": "Overall N=47", "value": 5}, {"measurement": "Headache, drug-related AE: % of subjects", "setting": "Overall N=47", "value": 11, "unit": "%"}, {"measurement": "Headache, drug-related AE: events", "setting": "Overall N=47", "value": 5}, {"measurement": "Headache, drug-related AE: subjects", "setting": "Overall N=47", "value": 5}, {"measurement": "Hypoaesthesia Facial, drug-related AE: % of subjects", "setting": "Overall N=47", "value": 2, "unit": "%"}, {"measurement": "Hypoaesthesia Facial, drug-related AE: events", "setting": "Overall N=47", "value": 1}, {"measurement": "Hypoaesthesia Facial, drug-related AE: subjects", "setting": "Overall N=47", "value": 1}, {"measurement": "Hypoaesthesia Oral, drug-related AE: % of subjects", "setting": "Overall N=47", "value": 11, "unit": "%"}, {"measurement": "Hypoaesthesia Oral, drug-related AE: events", "setting": "Overall N=47", "value": 6}, {"measurement": "Hypoaesthesia Oral, drug-related AE: subjects", "setting": "Overall N=47", "value": 5}, {"measurement": "Hypoaesthesia, drug-related AE: % of subjects", "setting": "Overall N=47", "value": 4, "unit": "%"}, {"measurement": "Hypoaesthesia, drug-related AE: events", "setting": "Overall N=47", "value": 2}, {"measurement": "Hypoaesthesia, drug-related AE: subjects", "setting": "Overall N=47", "value": 2}, {"measurement": "Nausea, drug-related AE: % of subjects", "setting": "Overall N=47", "value": 9, "unit": "%"}, {"measurement": "Nausea, drug-related AE: events", "setting": "Overall N=47", "value": 4}, {"measurement": "Nausea, drug-related AE: subjects", "setting": "Overall N=47", "value": 4}, {"measurement": "Nervous System Disorders Total, drug-related AE: % of subjects", "setting": "Overall N=47", "value": 57, "unit": "%"}, {"measurement": "Nervous System Disorders Total, drug-related AE: events", "setting": "Overall N=47", "value": 74}, {"measurement": "Nervous System Disorders Total, drug-related AE: subjects", "setting": "Overall N=47", "value": 27}, {"measurement": "Paraesthesia Oral, drug-related AE: % of subjects", "setting": "Overall N=47", "value": 43, "unit": "%"}, {"measurement": "Paraesthesia Oral, drug-related AE: events", "setting": "Overall N=47", "value": 30}, {"measurement": "Paraesthesia Oral, drug-related AE: subjects", "setting": "Overall N=47", "value": 20}, {"measurement": "Paraesthesia, drug-related AE: % of subjects", "setting": "Overall N=47", "value": 26, "unit": "%"}, {"measurement": "Paraesthesia, drug-related AE: events", "setting": "Overall N=47", "value": 20}, {"measurement": "Paraesthesia, drug-related AE: subjects", "setting": "Overall N=47", "value": 12}, {"measurement": "Possibly or probably related AEs, Mild: % of subjects", "setting": "Overall N=47", "value": 64, "unit": "%"}, {"measurement": "Possibly or probably related AEs, Mild: events", "setting": "Overall N=47", "value": 92}, {"measurement": "Possibly or probably related AEs, Mild: subjects", "setting": "Overall N=47", "value": 30}, {"measurement": "Possibly or probably related AEs, Moderate: % of subjects", "setting": "Overall N=47", "value": 2, "unit": "%"}, {"measurement": "Possibly or probably related AEs, Moderate: events", "setting": "Overall N=47", "value": 1}, {"measurement": "Possibly or probably related AEs, Moderate: subjects", "setting": "Overall N=47", "value": 1}, {"measurement": "Possibly or probably related AEs, Severe: % of subjects", "setting": "Overall N=47", "value": "(0%) [0]"}, {"measurement": "Possibly or probably related AEs, Severe: events", "setting": "Overall N=47", "value": "(0%) [0]"}, {"measurement": "Possibly or probably related AEs, Severe: subjects", "setting": "Overall N=47", "value": 0}, {"measurement": "Possibly or probably related AEs, Total: % of subjects", "setting": "Overall N=47", "value": 64, "unit": "%"}, {"measurement": "Possibly or probably related AEs, Total: events", "setting": "Overall N=47", "value": 93}, {"measurement": "Possibly or probably related AEs, Total: subjects", "setting": "Overall N=47", "value": 30}, {"measurement": "Serious adverse events: % of subjects", "setting": "Overall N=47", "value": "(0%) [0]"}, {"measurement": "Serious adverse events: events", "setting": "Overall N=47", "value": "(0%) [0]"}, {"measurement": "Serious adverse events: subjects", "setting": "Overall N=47", "value": 0}, {"measurement": "Skin and Subcutaneous Tissue Disorders Total, drug-related AE: % of subjects", "setting": "Overall N=47", "value": 2, "unit": "%"}, {"measurement": "Skin and Subcutaneous Tissue Disorders Total, drug-related AE: events", "setting": "Overall N=47", "value": 1}, {"measurement": "Skin and Subcutaneous Tissue Disorders Total, drug-related AE: subjects", "setting": "Overall N=47", "value": 1}, {"measurement": "Vascular Disorders Total, drug-related AE: % of subjects", "setting": "Overall N=47", "value": 2, "unit": "%"}, {"measurement": "Vascular Disorders Total, drug-related AE: events", "setting": "Overall N=47", "value": 1}, {"measurement": "Vascular Disorders Total, drug-related AE: subjects", "setting": "Overall N=47", "value": 1}, {"measurement": "safety and tolerability", "setting": "single oral 20 mg, fed and fasted", "value": "safe and well tolerated"}, {"measurement": "deaths or SAEs", "setting": "whole study", "value": "no deaths or SAEs"}]}
